The target in one test is T1, CCKB receptor (Mus musculus, UniProt P56481).
T1 construct: The cortex was dissected, weighed and homogenised in 40 ml ice-cold buffer; tissue Charles River (animals); host or cells: cerebral cortex of male CD1 mice, membranes
T1 sequence (P56481 1-453): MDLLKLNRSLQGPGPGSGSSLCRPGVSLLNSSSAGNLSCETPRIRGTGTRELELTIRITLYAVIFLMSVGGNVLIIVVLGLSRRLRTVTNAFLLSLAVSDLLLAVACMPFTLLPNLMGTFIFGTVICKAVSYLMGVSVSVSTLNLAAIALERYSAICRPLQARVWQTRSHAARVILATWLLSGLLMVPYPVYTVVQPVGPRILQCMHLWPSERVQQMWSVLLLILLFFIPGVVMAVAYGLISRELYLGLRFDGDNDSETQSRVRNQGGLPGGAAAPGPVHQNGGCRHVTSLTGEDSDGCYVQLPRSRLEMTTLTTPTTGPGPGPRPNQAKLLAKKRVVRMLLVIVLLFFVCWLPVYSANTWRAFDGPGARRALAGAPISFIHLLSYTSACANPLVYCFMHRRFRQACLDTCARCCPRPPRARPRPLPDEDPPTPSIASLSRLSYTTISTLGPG
The experiment in a line: radioligand binding assay at the CCKB receptor in mouse cortical membranes ([125I]-CCK8S). To be noted: [125I]-CCK8S 200 pM, 150 min at 21±3° C.; for pKi (Mouse cortex): pH 7.2; for Ki: pH 7.2, read-out: pKi (Mouse cortex) (converted). As to the method: The compounds of the examples were tested for binding at the CCKB receptor in mouse cortical membranes by means of a radioligand binding assay. The procedure was as follows:
The whole brains from male mice (CD1 22-25 g; Charles River) were removed and placed in ice-cold buffer (pH7.2@21±3° C.) of the following composition (mM); 10 HEPES, 130 NaCl, 4.7 KCl, 5 MgCl2, 1 EDTA and containing 0.25 g.1^-1 bacitracin. The cortex was dissected, weighed and homogenised in 40 ml ice-cold buffer using a Teflon-in-glass homogeniser. The homogenate was centrifuged at 39,800 g for 20 min at 4° C., the supernatant discarded and the pellet resuspended by homogenisation in fresh buffer. The homogenate was recentrifuged (39,800 g; 20 min @4° C.) and the final pellet was resuspended in HEPES buffer to give a tissue concentration of 2 mg.ml^-1 (original wet weight).
The membranes (400 μl) were incubated for 150 min at 21±3° C. in a final volume of 0.5 ml with HEPES buffer containing [^125 I]-CCK8S (0.05 ml; 200 pM NEN 2200 Ci.mmol^-1) and competing compound. Total and non-specific binding of [^125 I]-CCK8S were defined using 0.05 ml of buffer and 0.05 ml of […] L-365,260, respectively. The assay was terminated by rapid filtration through pre-soaked Whatman GF/B filters using a Brandell Cell harvester. The filters were washed (3×3 ml) with ice-cold 50 mM Tris-HCl (pH7.4@4° C.) and bound radioactivity determined by counting (1 min.) in a gamma-counter.

The target of another test is T2, CCKA (Cavia porcellus, UniProt Q63931).
T2 construct: The pancreatata were removed from male guinea-pigs; from tissue; host or cells: pancreas of male Dunkin Hartley guinea pigs, membranes
T2 sequence (Q63931 1-430): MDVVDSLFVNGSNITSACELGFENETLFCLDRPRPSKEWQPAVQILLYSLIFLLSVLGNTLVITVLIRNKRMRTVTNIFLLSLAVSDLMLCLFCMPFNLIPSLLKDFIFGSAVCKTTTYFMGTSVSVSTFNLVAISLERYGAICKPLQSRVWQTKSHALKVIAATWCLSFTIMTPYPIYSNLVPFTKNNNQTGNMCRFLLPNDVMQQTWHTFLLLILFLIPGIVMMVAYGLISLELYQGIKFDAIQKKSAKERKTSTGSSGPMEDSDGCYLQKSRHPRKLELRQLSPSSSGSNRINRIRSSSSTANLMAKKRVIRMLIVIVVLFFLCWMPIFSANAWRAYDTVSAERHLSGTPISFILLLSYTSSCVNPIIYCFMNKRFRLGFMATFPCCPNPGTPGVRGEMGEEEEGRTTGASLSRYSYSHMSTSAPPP
The experiment in a line: CCKA binding assay, guinea pig pancreas membranes ([125I]-CCK8(S)). The conditions noted are these: [125I]-CCK8(S) 200 pM, 0.375 μM PD134,308, 150 min at 21±3° C.; for pKi (Guinea pig pancreas): pH 7.2; for Ki: pH 7.2, read-out: pKi (Guinea pig pancreas) (converted). As to the method:
The compounds of the examples were also tested in a CCKA binding assay as follows:
The pancreatata were removed from male guinea-pigs (200-300 g; Dunkin Hartley) and placed in ice-cold HEPES buffer (pH 7.2@21±3° C.). The pancreatata were homogenised in 40 ml ice-cold HEPES buffer using a polytron (Brinkmann, PT10, setting 10) 4×1 second. The homogenate was centrifuged at 39,800 g for 15 min at 4° C. The supernatant was discarded and the pellet re-suspended using a Teflon-in-glass homogeniser in 20 volumes of fresh buffer and re-centrifuged as above. The final pellet was re-suspended using a Teflon-in-glass homogeniser to a tissue concentration of 1 mg.ml^-1 (original wet weight), and filtered through 500 μm pore-size Nytex mesh.
The membranes (400 μl; containing 0.375 μM PD134,308) were incubated for 150 minutes at 21±3° C. in a final volume of 0.5 ml with HEPES buffer containing [^125 I]-CCK8 (S) (50 μl; 200 pM) and competing compound. Total and non-specific binding of [^125 I]-CCK8 (S) were defined using 50 μl of buffer and 50 μl of 100 nM L-364,718 respectively. The assay was terminated by rapid filtration through pre-soaked Whatman GF/B filters using a Brandell Cell Harvester. The filters were washed (3×3 ml) with ice-cold 50 mM Tris HCl (pH 7.4 at 4° C.) and bound radioactivity was determined by counting (1 min) in a gamma counter.

With “1-benzyl-7-hydroxy-4-(3-methylphenyl)carbamyl-2-oxo-2,3,4,5,6,7-hexahydro- 1H-1,4-benzodiazonine (isomer 1) [Example 7]”, the “pKi (Mouse cortex)” value on CCKB receptor was 5.0. The “pKi (Guinea pig pancreas)” value on CCKA turned out to be 5.8.

Take `O=C(O)CCC(=O)N1CCC(=O)c2ccccc2N(Cc2ccccc2)C(=O)C1CC12CC3CC(CC(C3)C1)C2` (racemic) [Example 33, (R/S)-3-(1-adamantyl)methyl-1-benzyl-4-(2-carboxy)ethylcarbonyl-2,7-dioxo-2,3,4,5,6,7-hexahydro-1H-1,4-benzodiazonine]: the Ki on CCKB receptor is 10 µM; at CCKA, 6.31 µM. On the same counts, the results for `CC(=O)N1CCC(=O)c2ccccc2N(Cc2ccccc2)C(=O)C1CC12CC3CC(CC(C3)C1)C2` (racemic) [Example 34, (R/S)-4-acetyl-3-(1-adamantyl)methyl-1-benzyl-2,7-dioxo-2,3,4,5,6,7-hexahydro-1H-1,4-benzodiazonine] are 3.98 µM and 2.51 µM. For the compound `Nc1cccc(CN2C(=O)C(CC34CC5CC(CC(C5)C3)C4)N(C(=O)CC(=O)O)CCC(=O)c3ccccc32)c1` (racemic) [Example 35, (R/S)-3-(1-adamantyl)methyl-1-(3-amino)benzyl-4-carboxymethylcarbonyl-2,7-dioxo-2,3,4,5,6,7-hexahydro-1H-1,4-benzodiazonine], the Ki at CCKB receptor is 2.51 µM; at CCKA, 7.94 µM. For `CC(=O)N1[C@H](CC23CC4CC(CC(C4)C2)C3)C(=O)N(Cc2ccccc2)c2ccc(F)cc2C(=O)C[C@H]1C(=O)NCC(=O)O` (relative stereo) [Example 61, (+/-)-trans-4-acetyl-3-(1-adamantyl)methyl-1-benzyl-5-carboxymethylaminocarbonyl-2,7-dioxo-9-fluoro-2,3,4,5,6,7-hexahydro-1H-1,4-benzodiazonine], the results for the Ki at CCKB receptor and on CCKA were 0.398 µM and 12.6 µM, respectively.

For `CC(=O)N1[C@H](CC23CC4CC(CC(C4)C2)C3)C(=O)N(Cc2ccccc2)c2ccccc2C(=O)C[C@H]1C(=O)N1CCC[C@H]1C(=O)O` (single isomer, unassigned; isomer 1) [Example 27], the “pKi (Mouse cortex)” value on CCKB receptor stood at 5.0. Also, at CCKA, the “pKi (Guinea pig pancreas)” value amounted to 5.0.

`CC(=O)N1[C@H](CC23CC4CC(CC(C4)C2)C3)C(=O)N(Cc2ccccc2)c2ccccc2C(=O)C[C@H]1C(=O)N(C)CC(=O)O` (single isomer, unassigned; isomer 1) [Example 29]: the “pKi (Mouse cortex)” value at CCKB receptor was 5.5. Further, the “pKi (Guinea pig pancreas)” value at CCKA is on record as 5.2. Regarding `Cc1cccc(NC(=O)N2CCC(O)c3ccccc3N(Cc3ccccc3)C(=O)C2)c1` (single isomer, unassigned; isomer 2) [Example 8, 1-benzyl-7-hydroxy-4-(3-methylphenyl)carbamyl-2-oxo-2,3,4,5,6,7-hexahydro-1H-1,4-benzodiazonine (isomer 2)], the Ki on CCKB receptor was 10 µM; on CCKA, 1 µM. On to `CC(=O)N1[C@H](CC23CC4CC(CC(C4)C2)C3)C(=O)N(Cc2ccccc2)c2ccccc2C(=O)C[C@H]1C(=O)N1CCC[C@H]1C(=O)O` (single isomer, unassigned; isomer 2) [Example 28], for which, at CCKB receptor, the “pKi (Mouse cortex)” value was 5.4. Besides, the “pKi (Guinea pig pancreas)” value at CCKA is given as 4.6.

Take `CC(=O)N1[C@H](CC23CC4CC(CC(C4)C2)C3)C(=O)N(Cc2ccccc2)c2ccccc2C(=O)C[C@H]1C(=O)N(C)CC(=O)O` (single isomer, unassigned; isomer 2) [Example 30]: the “pKi (Mouse cortex)” value on CCKB receptor came out at 5.0. Further, on CCKA, the “pKi (Guinea pig pancreas)” value is given as 5.1.

As for `CCC1CCN(C(=O)c2cc3ccccc3[nH]2)CC(=O)N(Cc2ccccc2)c2ccccc21` (stereo not drawn) [Example 53, 1-benzyl-7-ethyl-4-(2-indolecarbonyl)-2-oxo-2,3,4,5,6,7-hexahydro-1H-1,4-benzodiazonine], the Ki at CCKA is 0.631 µM.

Values taken from patent US6057311A, “Benzodiazonine derivatives binding to cholecystokinin or gastrin receptors” (James Black Foundation Limited, priority 1996, dated 2000).
